Laboratory results from patent US20210121456A1, “USE OF METHYLNALTREXONE TO ATTENUATE TUMOR PROGRESSION” (Salix Pharmaceuticals, Inc., priority 2014, published 2021).

System: patients with advanced cancers (and non-cancer advanced illness) and opioid-induced constipation
Test: Pooled post-hoc analysis of Study 1 and Study 2: deaths and overall survival
Assay type: in vivo, human
Procedure: Routine adverse event (AE) evaluations described in Example 3 were analyzed. AEs of tumor progression in specific cancers and survival analysis of the placebo and methylnaltrexone-treated cohorts in the clinical studies were tabulated. Both studies were randomized, placebo-controlled trials that involved a 2-week treatment period followed by a 2-week follow-up period. The enrolled subjects were advanced illness (incurable cancer or other end-stage disease) subjects with OIC who were receiving stable doses of laxatives and opioid analgesics. In the context of the study, a stable dose of opioid analgesics was defined as no reduction in the dose of opioid analgesic of ≥50% for at least three days before the first dose of MNTX. A stable dose of laxatives was defined as having a standing laxative order (and not PRN, or as-needed) for at least three days before the first dose of MNTX. A diagnosis of constipation was provided if the subject had (a) fewer than 3 bowel movements during the previous week by history and no clinically notable laxation in the 24 hours before the first dose of MNTX, or (b) no clinical notable laxation in the 48 hours before the first dose of MNTX. In Study 1 (Example 1), subjects received subcutaneous MNTX 0.15 mg/kg or placebo (PBO) every other day (QOD), and in Study 2 (Example 2) subjects received subcutaneous MNTX (8 mg or 12 mg based on body weight 38 to <62 kg or ≥62 kg, respectively) or placebo administered QOD. The 12 mg fixed dose was designed to correspond to the 0.15 mg/kg weight-based dose. Rescue-laxatives, enemas or manual disimpactions were not administered within 4 hours before or after each dose of MNTX. […] For statistical significance testing, the Fisher's exact test was used (p<0.05).
Subsequent to the initial pooled analysis in Example 3, the data from Study 1 and Study 2 was re-analyzed for overall survival (OS) in a post-hoc analysis. Overall survival (OS) was defined as the time interval from the treatment initiation to the date of death or the date of last follow up, whichever occurred first. […] In Study 2, 151 of the enrolled 229 patients were diagnosed with advanced cancers. […] FIG. 12 provides a schematic of the subjects with advanced cancers from the pooled studies that were analyzed in the subsequent analysis. Table 3 provides the patient characteristics from the subsequent pooled analysis of the two studies. Table 4 provides a distribution of the type of cancer diagnosed in the subjects analyzed for survival.
Table 7 lists the number of deaths and survivors in both the placebo and the methylnaltrexone-treated groups for subjects diagnosed with lung, breast, prostate, pancreatic and colon cancer. The groups are further categorized into methylnaltrexone responders and methylnaltrexone non-responders alone or in combination with the placebo group. The analysis included the results from the double-blind and open label phases of the studies. When the group of MNTX-treated subjects across both studies was examined, there was a significant difference in the percentage of subject deaths between the MNTX-responsive group and the MNTX non-responsive group, with the number of survivors in the MNTX-responsive group exceeding the number of survivors in the MNTX non-responsive group. […] For the analysis in Table 7, a subject with laxation within 0-4 hours after two of the first four doses of MNTX was considered a responder. The data in Table 6 may vary slightly from that in Table 4 based on how the subjects were coded as cancer patients during analysis of the data. […]
For the analysis carried out in this Example and in Example 3, a subject with laxation occurring from 0-4 hours after two of the first four doses of MNTX was considered a MNTX responder or responsive subject. Data for placebo patients who elected to participate in the open-label MNTX treatment phase was collected from the first 4 doses of open-label treatment. […]

[1] = Excluding crossover to MNTX (MNTX 117, placebo 61)
[2] = Patients on placebo (crossover to MNTX 51, placebo 61)
[3] = Table 6, Non-Responders (versus Responders < 4hr)
[4] = Table 6, Non-Responders (versus Responders < 8hr)
[5] = Table 6, Non-Responders (versus Responders < 12hr)
[6] = Table 6, Non-Responders (versus Responders < 24hr)
[7] = Table 7, MNTX All, Total of five cancers
[8] = Table 7, MNTX Non-Responders, Breast
[9] = Table 7, MNTX Non-Responders, Colon
[10] = Table 7, MNTX Non-Responders, Lung
[11] = Table 7, MNTX Non-Responders, Pancreas
[12] = Table 7, MNTX Non-Responders, Prostate
[13] = Table 7, MNTX Non-Responders, Total of five cancers
[14] = Table 7, MNTX Responders, Breast
[15] = Table 7, MNTX Responders, Colon
[16] = Table 7, MNTX Responders, Pancreas
[17] = Table 7, MNTX Responders, Prostate
[18] = Table 7, MNTX Responders, Total of five cancers

SMILES: C[N@+]1(CC2CC2)CC[C@]23c4c5ccc(O)c4O[C@H]2C(=O)CC[C@@]3(O)[C@H]1C5.[Br-] [MNTX, (R)—N-(cyclopropylmethyl) noroxymorphone methobromide]
- overall survival MNTX vs. placebo (134 patients with advanced illness other than cancer, p=0.88): no difference
- Hazard Ratio, Treatment: MNTX vs. placebo (overall survival, Cox regression) (All patients (MNTX 117, placebo 112)): 0.70
- Hazard Ratio, Response vs. no response [1]: 0.32
- Hazard Ratio, Treatment: MNTX vs. placebo [1]: 0.32
- Deaths (number) (MNTX All Patients, Cancer): 45
- Deaths (number) (MNTX All Patients, Non-Cancer): 11
- Deaths (%) (MNTX All Patients, Totals): (31.3%)
- Deaths (number) (MNTX All Patients, Totals): 56
- Deaths (number) (MNTX Non-Responders, Cancer): 23
- Deaths (number) (MNTX Non-Responders, Non-Cancer): 5
- Deaths (%) (MNTX Non-Responders, Totals): (39.4%)
- Deaths (number) (MNTX Non-Responders, Totals): 28
- Deaths (number) (MNTX Responders, Cancer): 22
- Deaths (number) (MNTX Responders, Non-Cancer): 6
- Deaths (%) (MNTX Responders, Totals): (25.9%)
- Deaths (number) (MNTX Responders, Totals): 28
- median overall survival (OS) (MNTX non-responsive group (45 subjects)): 58 days
- overall survival (OS) (MNTX-responsive group, analysis before the updated analysis (FIG. 9)): 121 days
- Hazard Ratio, Response vs. no response [2]: 0.64
- Hazard Ratio, Treatment: MNTX vs. placebo [2]: 0.15
- % Deaths [3]: 50.0%
- Deaths [3]: 22
- Survivors [3]: 22
- % Deaths [4]: 53.8%
- Deaths [4]: 21
- Survivors [4]: 18
- % Deaths [5]: 50.0%
- Deaths [5]: 18
- Survivors [5]: 18
- % Deaths [6]: 48.4%
- Deaths [6]: 15
- Survivors [6]: 16
- % Deaths (Table 6, Responders < 4hr): 31.5%
- Deaths (Table 6, Responders < 4hr): 23
- Survivors (Table 6, Responders < 4hr): 50
- % Deaths (Table 6, Responders < 8hr): 30.8%
- Deaths (Table 6, Responders < 8hr): 24
- Survivors (Table 6, Responders < 8hr): 54
- % Deaths (Table 6, Responders < 12hr): 33.3%
- Deaths (Table 6, Responders < 12hr): 27
- Survivors (Table 6, Responders < 12hr): 54
- % Deaths (Table 6, Responders < 24hr): 34.9%
- Deaths (Table 6, Responders < 24hr): 30
- Survivors (Table 6, Responders < 24hr): 56
- Deaths (Table 7, MNTX All, Breast): 3
- Deaths (%) (Table 7, MNTX All, Breast): 21.4%
- Survivors (Table 7, MNTX All, Breast): 11
- Deaths (Table 7, MNTX All, Colon): 1
- Deaths (%) (Table 7, MNTX All, Colon): 25.0%
- Survivors (Table 7, MNTX All, Colon): 3
- Deaths (Table 7, MNTX All, Lung): 14
- Deaths (%) (Table 7, MNTX All, Lung): 45.2%
- Survivors (Table 7, MNTX All, Lung): 17
- Deaths (Table 7, MNTX All, Pancreas): 3
- Deaths (%) (Table 7, MNTX All, Pancreas): 33.3%
- Survivors (Table 7, MNTX All, Pancreas): 6
- Deaths (Table 7, MNTX All, Prostate): 5
- Deaths (%) (Table 7, MNTX All, Prostate): 41.7%
- Survivors (Table 7, MNTX All, Prostate): 7
- Deaths [7]: 26
- Deaths (%) [7]: 37.7%
- Survivors [7]: 43
- Deaths [8]: 2
- Deaths (%) [8]: 50.0%
- Survivors [8]: 2
- Deaths [9]: 0
- Deaths (%) [9]: 0.0%
- Survivors [9]: 1
- Deaths [10]: 8
- Deaths (%) [10]: 47.1%
- Survivors [10]: 9
- Deaths [11]: 3
- Deaths (%) [11]: 75.0%
- Survivors [11]: 1
- Deaths [12]: 3
- Deaths (%) [12]: 60.0%
- Survivors [12]: 2
- Deaths [13]: 16
- Deaths (%) [13]: 51.6%
- Survivors [13]: 15
- Deaths (Table 7, MNTX Responders (laxation within 0-4 hours after two of the first four doses), Lung): 6
- Deaths [14]: 1
- Deaths (%) [14]: 10.0%
- Survivors [14]: 9
- Deaths [15]: 1
- Deaths (%) [15]: 33.3%
- Survivors [15]: 2
- Deaths (%) (Table 7, MNTX Responders, Lung): 42.9%
- Survivors (Table 7, MNTX Responders, Lung): 8
- Deaths [16]: 0
- Deaths (%) [16]: 0.0%
- Survivors [16]: 5
- Deaths [17]: 2
- Deaths (%) [17]: 28.6%
- Survivors [17]: 5
- Deaths [18]: 10
- Deaths (%) [18]: 26.3%
- Survivors [18]: 28
- median overall survival (OS) (cancer patients treated with MNTX (n=117)): 76 days
- median overall survival (OS) (cancer patients with response to MNTX (n=72)): 118 days
- median OS (lung cancer patients (n=15) with response to MNTX): 118 days
- median OS (lung cancer, 32 patients treated with MNTX): 118 days
- Deaths (pancreatic cancer, 4 patients with response to MNTX): no death
- median OS (pancreatic cancer, 8 patients treated with MNTX): 76 days
- survival extended after administration (pancreatic cancer, methylnaltrexone-responsive group, initial analysis (FIG. 12)): ~100 days
- median OS (placebo patients (n=23) with response to MNTX during open-label treatment): 74 days
- median overall survival (placebo patients (n=56) who crossed over to MNTX): 75 days
